Target: mTOR/GbL/Raptor (mTORC1) (Homo sapiens, UniProt P42345)
Assay: mTOR/GbL/Raptor (mTORC1) ELISA assay
Format: biochemical
Details: phosphorylation of 4E-BP1; 0.2 nM mTORC1, 10 μM ATP; read-out: IC50 in this assay (mTORC1 ELISA)
Summary of the method: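 ELISA read-out: phospho-4E-BP1 captured on Ni-chelate plates and detected with anti-phospho antibody plus HRP-anti-IgG luminescence. The kinase step ran 120 min at ambient temperature with 0.2 nM human mTORC1, 10 µM ATP, 50 nM His-4E-BP1, 10 mM MnCl2, pH 7.2 HEPES.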

Row | IC50 [nM] | Compound
1 | 250 to 1000 | CCc1c(C)nc(CN(C)C)nc1N1CCOc2ccc(-c3ccc4[nH]c(C)nc4c3)cc2C1 [Example 349, 1-{5-ethyl-4-methyl-6-[7-(2-methyl-1H-benzimidazol-5-yl)-2,3-dihydro-1,4-benzoxazepin-4(5H)-yl]pyrimidin-2-yl}-N,N-dimethylmethanamine]
2 | 50 to 250 | CC1=CC(C)(C)Cc2c1ncnc2N1CCOc2ccc(-c3cnc(N)c(S(=O)(=O)N[C@@H]4CCN(C)C4)c3)cc2C1 [Example 422, 2-amino-N-[(3R)-1-methylpyrrolidin-3-yl]-5-[4-(6,6,8-trimethyl-5,6-dihydroquinazolin-4-yl)-2,3,4,5-tetrahydro-1,4-benzoxazepin-7-yl]pyridine-3-sulfonamide]
3 | ≤ 10 | CC1(C)C=Cc2ncnc(N3CCOc4ccc(-c5cnc(N)c(S(=O)(=O)N6CC[C@@H](N)C6)c5)cc4C3)c2C1 [Example 450, 3-{[(3R)-3-aminopyrrolidin-1-yl]sulfonyl}-5-[4-(6,6-dimethyl-5,6-dihydroquinazolin-4-yl)-2,3,4,5-tetrahydro-1,4-benzoxazepin-7-yl]pyridin-2-amine]
4 | 10 to 50 | CC1(C)CCc2ncnc(N3CCOc4ccc(-c5cnc(N)c(S(=O)(=O)N6CCCC(O)C6)c5)cc4C3)c2C1 (centres unmarked) [Example 316]
5 | ≤ 10 | Cc1nc2ccc(-c3ccc4c(c3)CN(c3ccnc(C)c3Cc3ccc(F)cc3)CCO4)cc2[nH]1 [Example 102, 4-{3-[(4-fluorophenyl)methyl]-2-methylpyridin-4-yl}-7-(2-methyl-1H-benzimidazol-6-yl)-2,3,4,5-tetrahydro-1,4-benzoxazepine]
6 | 250 to 1000 | CCNc1nc2ccc(-c3ccc4c(c3)CN(c3cc(C)nc5cc(OC)ccc35)CCO4)cc2[nH]1 [Example 247, N-ethyl-6-{4-[2-methyl-7-(methyloxy)quinolin-4-yl]-2,3,4,5-tetrahydro-1,4-benzoxazepin-7-yl}-1H-benzimidazol-2-amine]
7 | 50 to 250 | Cc1nc2ccc(-c3ccc4c(c3)CN(c3ncnc5c3CC(C)C5)CCO4)cc2[nH]1 (centres unmarked) [Example 76, 7-(2-methyl-1H-benzimidazol-6-yl)-4-(6-methyl-6,7-dihydro-5H-cyclopenta[d]pyrimidin-4-yl)-2,3,4,5-tetrahydro-1,4-benzoxazepine]
8 | 250 to 1000 | Cc1c(NC2CCN(C)CC2)ncnc1N1CCOc2ccc(-c3cnc4nc(C5CC5)[nH]c4c3)cc2C1 [Example 531, 6-[7-(2-cyclopropyl-1H-imidazo[4,5-b]pyridin-6-yl)-2,3-dihydro-1,4-benzoxazepin-4(5H)-yl]-5-methyl-N-(1-methylpiperidin-4-yl)pyrimidin-4-amine]
9 | 10 to 50 | CC[C@H]1CCc2c(ncnc2N2CCOc3ccc(-c4cnc(N)c(S(=O)(=O)NCC(C)(C)N)c4)cc3C2)C1 [Example 407, 2-amino-N-(2-amino-2-methylpropyl)-5-{4-[(7S)-7-ethyl-5,6,7,8-tetrahydroquinazolin-4-yl]-2,3,4,5-tetrahydro-1,4-benzoxazepin-7-yl]pyridine-3-sulfonamide]
10 | 250 to 1000 | Cc1nc2ncc(-c3ccc4c(c3)CN(c3ncncc3C)CCO4)cc2[nH]1 [Example 169, 7-(2-methyl-1H-imidazo[4,5-b]pyridin-6-yl)-4-(5-methylpyrimidin-4-yl)-2,3,4,5-tetrahydro-1,4-benzoxazepine]
11 | 1000 to 2000 | CC1(C)CCc2ncnc(N3CCOc4ccc(-c5cnc(Cl)c(CS(C)(=O)=O)c5)cc4C3)c2C1 [Example 574, 7-{6-chloro-5-[(methylsulfonyl)methyl]pyridin-3-yl}-4-(6,6-dimethyl-5,6,7,8-tetrahydroquinazolin-4-yl)-2,3,4,5-tetrahydro-1,4-benzoxazepine]
12 | 250 to 1000 | CC1(C)CCc2ncnc(N3CCOc4ccc(-c5cnc(Cl)c(S(=O)(=O)N6CC[C@H](N)C6)c5)cc4C3)c2C1 [Example 307, (3S)-1-({2-chloro-5-[4-(6,6-dimethyl-5,6,7,8-tetrahydroquinazolin-4-yl)-2,3,4,5-tetrahydro-1,4-benzoxazepin-7-yl]pyridin-3-yl}sulfonyl)pyrrolidin-3-amine]
13 | 250 to 1000 | CNc1ncnc(N2CCOc3ccc(-c4cnc5nc(C)[nH]c5c4)cc3C2)c1C [Example 610, N,5-dimethyl-6-[7-(2-methyl-1H-imidazo[4,5-b]pyridin-6-yl)-2,3-dihydro-1,4-benzoxazepin-4(5H)-yl]pyrimidin-4-amine]
14 | 10 to 50 | CC1(C)CCc2ncnc(N3CCOc4ccc(-c5cnc(N)c(S(=O)(=O)NC[C@H]6CCCNC6)c5)cc4C3)c2C1 [Example 389, 2-amino-5-[4-(6,6-dimethyl-5,6,7,8-tetrahydroquinazolin-4-yl)-2,3,4,5-tetrahydro-1,4-benzoxazepin-7-yl]-N-[(3S)-piperidin-3-ylmethyl]pyridine-3-sulfonamide]
15 | 250 to 1000 | COc1ccc2nc(Cl)nc(N3CCOc4ccc(-c5ccc6nc(C)[nH]c6c5)cc4C3)c2c1 [Example 33, 4-[2-chloro-6-(methyloxy)quinazolin-4-yl]-7-(2-methyl-1H-benzimidazol-6-yl)-2,3,4,5-tetrahydro-1,4-benzoxazepine]
16 | 250 to 1000 | COc1ccc2c(N3CCOc4ccc(-c5ccc(N)cc5)cc4C3)nc(C)nc2c1 [Example 504, 4-{4-[2-methyl-7-(methyloxy)quinazolin-4-yl]-2,3,4,5-tetrahydro-1,4-benzoxazepin-7-yl}aniline]
17 | ≥ 2000 | Cc1nc2ccc(-c3ccc4c(c3)CN(c3ccnc5cc(C#N)ccc35)CCO4)cc2[nH]1 [Example 242, 4-[7-(2-methyl-1H-benzimidazol-6-yl)-2,3-dihydro-1,4-benzoxazepin-4(5H)-yl]quinolin-7-carbonitrile]
18 | ≤ 10 | CC1(C)CCc2ncnc(N3CCOc4ccc(-c5cnc(N)c(S(=O)(=O)N6CC(N)C6)c5)cc4C3)c2C1 [Example 443, 3-[(3-aminoazetidin-1-yl)sulfonyl]-5-[4-(6,6-dimethyl-5,6,7,8-tetrahydroquinazolin-4-yl)-2,3,4,5-tetrahydro-1,4-benzoxazepin-7-yl]pyridin-2-amine]
19 | 50 to 250 | COc1ccc2c(N3CCOc4ccc(-c5cnc6nc(C)[nH]c6c5)cc4C3)ncnc2c1 [Example 565, 7-(2-methyl-1H-imidazo[4,5-b]pyridin-6-yl)-4-[7-(methyloxy)quinazolin-4-yl]-2,3,4,5-tetrahydro-1,4-benzoxazepine]
20 | 10 to 50 | COC(=O)Nc1nc2ccc(-c3ccc4c(c3)CN(c3ncnc(C)c3Cc3ccc(F)cc3)CCO4)cc2[nH]1 [Example 113, methyl [6-(4-{5-[(4-fluorophenyl)methyl]-6-methylpyrimidin-4-yl}-2,3,4,5-tetrahydro-1,4-benzoxazepin-7-yl)-1H-benzimidazol-2-yl]carbamate]
21 | 50 to 250 | CCNc1nc2ccc(-c3ccc4c(c3)CN(c3nc(C)nc5cc(F)ccc35)CCO4)cc2[nH]1 [Example 295, N-ethyl-6-[4-(7-fluoro-2-methylquinazolin-4-yl)-2,3,4,5-tetrahydro-1,4-benzoxazepin-7-yl]-1H-benzimidazol-2-amine]
22 | ≤ 10 | Cc1nc2ncc(-c3ccc4c(c3)CN(c3nc(CN[C@@H](C)C(=O)O)nc5c3CC(C)(C)CC5)CCO4)cc2[nH]1 [Example 596, N-({6,6-dimethyl-4-[7-(2-methyl-1H-imidazo[4,5-b]pyridin-6-yl)-2,3-dihydro-1,4-benzoxazepin-4(5H)-yl]-5,6,7,8-tetrahydroquinazolin-2-yl}methyl)alanine]
23 | ≤ 10 | CC(=O)OCc1nc2c(c(N3CCOc4ccc(-c5cnc6nc(C)[nH]c6c5)cc4C3)n1)CC(C)(C)CC2 [Example 313, {6,6-dimethyl-4-[7-(2-methyl-1H-imidazo[4,5-b]pyridin-6-yl)-2,3-dihydro-1,4-benzoxazepin-4(5H)-yl]-5,6,7,8-tetrahydroquinazolin-2-yl}methyl acetate]
24 | 50 to 250 | Cc1nc2cc(-c3ccc4c(c3)CN(c3nc(C(C)N(C)C)nc5c3CC(C)(C)CC5)CCO4)cnc2[nH]1 (centres unmarked) [Example 356, 1-{6,6-dimethyl-4-[7-(2-methyl-3H-imidazo[4,5-b]pyridin-6-yl)-2,3-dihydro-1,4-benzoxazepin-4(5H)-yl]-5,6,7,8-tetrahydroquinazolin-2-yl}-N,N-dimethylethanamine]
25 | ≤ 10 | Cc1nc(N)nc(N2CCOc3ccc(-c4ccc5[nH]cnc5c4)cc3C2)c1Cc1ccc(F)cc1 [Example 651, 4-[7-(1H-benzimidazol-5-yl)-2,3-dihydro-1,4-benzoxazepin-4(5H)-yl]-5-[(4-fluorophenyl)methyl]-6-methylpyrimidin-2-amine]
26 | ≥ 2000 | CN(C)Cc1nc2c(c(N3CCOc4ccc(-c5ccc(Cl)c(C(N)=O)c5)cc4C3)n1)CC(C)(C)CC2 [Example 428, 2-chloro-5-(4-{2-[(dimethylamino)methyl]-6,6-dimethyl-5,6,7,8-tetrahydroquinazolin-4-yl}-2,3,4,5-tetrahydro-1,4-benzoxazepin-7-yl)benzamide]
27 | 50 to 250 | CCNc1nc2ccc(-c3ccc4c(c3)CN(c3ccnc5ccc(OC)cc35)CCO4)cc2[nH]1 [Example 278, N-ethyl-6-{4-[6-(methyloxy)quinolin-4-yl]-2,3,4,5-tetrahydro-1,4-benzoxazepin-7-yl}-1H-benzimidazol-2-amine]
28 | 50 to 250 | CCNc1nc2ccc(-c3ccc4c(c3)CN(c3nc(C)nc(Nc5ccccc5)c3C)CCO4)cc2[nH]1 [Example 538, 6-{4-[2,5-dimethyl-6-(phenylamino)pyrimidin-4-yl]-2,3,4,5-tetrahydro-1,4-benzoxazepin-7-yl}-N--ethyl-1H-benzimidazol-2-amine]
29 | 50 to 250 | Cc1nc2ncc(-c3ccc4c(c3)CN(c3ncnc5c3CCC(CO)C5)CCO4)cc2[nH]1 (centres unmarked) [Example 309, {4-[7-(2-methyl-1H-imidazo[4,5-b]pyridin-6-yl)-2,3-dihydro-1,4-benzoxazepin-4(5H)-yl]-5,6,7,8-tetrahydroquinazolin-7-yl}methanol]

Source: patent US8648066B2 (Exelixis, Inc., priority 2009, dated 2014)
